Here are results for one molecule from publication PMC9953561, “Five Post-Translational Modification Residues of CmPT2 Play Key Roles in Yeast and Rice” (International Journal of Molecular Sciences, 2023).

What is called Km is the substrate concentration at which the rate is half of its maximum.

In the assay the test system is CmPT2 (CmPht1;2). To be noted: labelled compound; H+ co-transporter; whole yeast cells; pH of uptake assay not stated.

Structures are written as SMILES.

Turning to `O=P(O)(O)O` [phosphate], the Km came out at 65.7 µM.
